# Measurements: US20110245292A1, “2-HYDROXY-ETHANESULFONATE SALT” (AstraZeneca AB, priority 2008, published 2011)
# Where a name gives a salt, the structure may show the parent alone.
# Assay: Gravimetric Vapour Sorption (GVS)
# Type: physicochemical
# Experimental: Gravimetric Vapour Sorption (GVS) profiles were measured using a Surface Measurements Systems Dynamic Vapour Sorption DVS-1 or a DVS Advantage instrument. The solid sample ca. 1-5 mg was placed into a glass vessel and the weight of the sample was recorded during a dual cycle step method (40 to 90 to 0 to 90 to 0% relative humidity (RH), in steps of 10% RH).
compound,measurement,setting,value
"O[C@](c1ccccc1)(c1cc(C[N+]23CCC(CC2)[C@@H](Oc2cccc(F)c2)C3)on1)C1CCCCC1 [Salt Form A, (R)-1-[3-((R)-cyclohexyl-hydroxy-phenyl-methyl)-isoxazol-5-ylmethyl]-3-(3-fluoro-phenoxy)-1-azonia-bicyclo[2.2.2]octane 2-hydroxy-ethanesulfonate]",GVS weight increase at 80% RH,"80% RH (±0.3%), material of preparation 2",0.15%
same,GVS mass increase at 80% RH,"80% RH, material of preparation 1",no mass increase
O[C@](c1ccccc1)(c1cc(C[N+]23CCC(CC2)[C@@H](Oc2cccc(F)c2)C3)on1)C1CCCCC1.[Cl-] [(R)-1-[3-((R)-Cyclohexyl-hydroxy-phenyl-methyl)-isoxazol-5-ylmethyl]-3-(3-fluoro-phenoxy)-1-azonia-bicyclo[2.2.2]octane chloride],"GVS mass increase, 1st cycle","1st cycle, sample of preparation 1 (step a)",approximately 5%
same,"GVS mass increase, 2nd cycle","2nd cycle, sample of preparation 1 (step a)",~6.5%
